According to publication PMC10836395, “Investigation of how gate residues in the main channel affect the catalytic activity of Scytalidium thermophilum catalase” (Acta Crystallographica. Section D, Structural Biology, 2024):

Key:
CATPO E484A variant = CATPO E484A variant (Scytalidium thermophilum (Humicola insolens), UniProt M4GGR5, E503A); assay: biochemical; settings: catechol oxidation by E484A; read-out: K i
mammalian catalase = biological target: mammalian catalase; parameters: method as in Vetrano et al., 2005; settings: ref Vetrano et al., 2005; cited from earlier work
CATPO E484D variant = CATPO E484D variant (Scytalidium thermophilum (Humicola insolens), UniProt M4GGR5, E503D); assay: biochemical; settings: catechol oxidation by E484D; read-out: K i
CATPO T188D variant = CATPO T188D variant (Scytalidium thermophilum (Humicola insolens), UniProt M4GGR5, T207D); assay: biochemical; settings: catechol oxidation by T188D; read-out: K i
CATPO T188I variant = CATPO T188I variant (Scytalidium thermophilum (Humicola insolens), UniProt M4GGR5, T207I); assay: biochemical; settings: catechol oxidation by T188I; read-out: K i
CATPO = CATPO (Scytalidium thermophilum (Humicola insolens), UniProt M4GGR5); assay: Inhibition of catechol oxidation; format: biochemical
CATPO T188A variant = CATPO T188A variant (Scytalidium thermophilum (Humicola insolens), UniProt M4GGR5, T207A); assay: biochemical; settings: catechol oxidation by T188A; read-out: K i
CATPO E484I variant = CATPO E484I variant (Scytalidium thermophilum (Humicola insolens), UniProt M4GGR5, E503I); assay: biochemical; settings: catechol oxidation by E484I; read-out: K i
CATPO T188F variant = CATPO T188F variant (Scytalidium thermophilum (Humicola insolens), UniProt M4GGR5, T207F); assay: biochemical; settings: catechol oxidation by T188F; read-out: K i
Sequence of CATPO T188F variant (M4GGR5 entry or part of it T207F): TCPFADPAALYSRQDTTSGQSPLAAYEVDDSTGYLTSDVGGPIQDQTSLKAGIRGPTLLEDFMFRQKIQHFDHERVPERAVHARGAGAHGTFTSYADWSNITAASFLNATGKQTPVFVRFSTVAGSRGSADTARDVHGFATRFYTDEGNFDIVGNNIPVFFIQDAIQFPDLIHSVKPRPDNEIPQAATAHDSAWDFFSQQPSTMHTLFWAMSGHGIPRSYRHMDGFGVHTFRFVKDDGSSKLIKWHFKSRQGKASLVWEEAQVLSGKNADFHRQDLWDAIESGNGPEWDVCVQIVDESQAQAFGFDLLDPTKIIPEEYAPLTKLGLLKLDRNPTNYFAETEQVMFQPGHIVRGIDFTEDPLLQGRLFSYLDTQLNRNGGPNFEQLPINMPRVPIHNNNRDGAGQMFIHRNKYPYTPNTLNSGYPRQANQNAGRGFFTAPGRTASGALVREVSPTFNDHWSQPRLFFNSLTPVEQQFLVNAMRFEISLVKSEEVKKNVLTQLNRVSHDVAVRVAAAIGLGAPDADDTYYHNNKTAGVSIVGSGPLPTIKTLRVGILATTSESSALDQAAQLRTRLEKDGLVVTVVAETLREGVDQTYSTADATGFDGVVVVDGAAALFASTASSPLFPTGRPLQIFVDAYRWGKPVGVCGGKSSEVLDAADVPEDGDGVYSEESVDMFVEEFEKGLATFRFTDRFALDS

Sequence of CATPO (M4GGR5 entry or part of it): as the sequence (M4GGR5 entry or part of it T207F) above
Sequence of CATPO E484D variant (M4GGR5 entry or part of it E503D): as the sequence (M4GGR5 entry or part of it T207F) above
Sequence of CATPO E484I variant (M4GGR5 entry or part of it E503I): as the sequence (M4GGR5 entry or part of it T207F) above
Sequence of CATPO T188I variant (M4GGR5 entry or part of it T207I): as the sequence (M4GGR5 entry or part of it T207F) above
Sequence of CATPO T188A variant (M4GGR5 entry or part of it T207A): as the sequence (M4GGR5 entry or part of it T207F) above
Sequence of CATPO T188D variant (M4GGR5 entry or part of it T207D): as the sequence (M4GGR5 entry or part of it T207F) above
Sequence of CATPO E484A variant (M4GGR5 entry or part of it E503A): as the sequence (M4GGR5 entry or part of it T207F) above

SMILES: [F-].[Na+] [NaF, sodium fluoride]
- Ki (CATPO E484A variant): 7.8 ± 1.1 mM
- Ki (mammalian catalase): 0.75 mM
- inhibition type (mammalian catalase): uncompetitive
- Ki (CATPO E484D variant): 0.66 ± 0.1 mM
- Ki (CATPO T188D variant): 5 ± 0.5 mM
- Ki (CATPO T188I variant): 5.8 ± 0.4 mM
- inhibition type (CATPO; catechol oxidase activity of wild-type CATPO, Lineweaver–Burk): uncompetitive
- Ki (CATPO; catechol oxidation by CATPO, catechol 1 to 100 mM, read-out: K i): 0.67 ± 0.1 mM
- Ki (CATPO T188A variant): 0.65 ± 0.1 mM
- Ki (CATPO E484I variant): 5.5 ± 0.2 mM
- Ki (CATPO T188F variant): 6.4 ± 0.4 mM
